Results reported in ChEMBL document CHEMBL5380859, “Bioactivity-Driven Synthesis of the Marine Natural Product Naamidine J and Its Derivatives as Potential Tumor Immunological Agents by Inhibiting Programmed Death-Ligand 1” (J Med Chem, 2023).
pIC50: −log10 of the molar value. The source made the active and inactive calls. No cut-off for these calls is given here.

Tests used:
RKO [1] = test: Cytotoxicity against human RKO cells assessed as reduction in cell viability after 24 hrs by CCK8 assay; assay type: functional, cell-based
RKO [2] = test: Downregulation of PD-L1 expression level in human RKO cells at 10 uM incubated for 24 hrs by Western blot analysis; assay type: functional, cell-based
MC-38 [3] = test: Antitumor activity against mouse MC38 cells implanted in C57BL/6 mouse assessed as reduction in tumor growth at 50 mg/kg, ip administered once daily for 16 days; assay type: functional, organism-based; settings: time 16.0 day
[4] = Toxicity in C57BL/6 mouse implanted with mouse MC38 cells assessed as change in body weight at 50 mg/kg, ip administered once daily for 16 days and measured every 2 days; assay type: organism-based, MC-38; settings: in vivo, 384 h, time 16 day
RKO [5] = test: Downregulation of PD-L1 expression level in human RKO cells assessed as turnover rate at 5 uM incubated for 12 hrs in presence of CHX by immunoblotting analysis; assay type: functional, cell-based
MC-38 [6] = test: Antitumor activity against mouse MC38 cells implanted in C57BL/6 mouse assessed as upregulation of cleaved caspase 3 at 50 mg/kg, ip administered once daily and measured after 16 days by immunohistochemistry analysis; assay type: functional, organism-based; settings: time 16.0 day
MC-38 [7] = test: Antitumor activity against mouse MC38 cells implanted in C57BL/6J mouse assessed as as increase in ratio of CD8 positive T cells to CD4 positive T cells at 50 mg/kg, ip administered once daily for 16 days by flow cytometry analysis; assay type: functional, organism-based; settings: time 16.0 day
MC-38 [8] = test: Antitumor activity against mouse MC38 cells implanted in C57BL/6 mouse assessed as downregulation of FOXP3 expression at 50 mg/kg, ip administered once daily and measured after 16 days by immunohistochemistry analysis; assay type: functional, organism-based; settings: time 16.0 day
RKO [9] = test: Effect on PD-L1 mRNA level in human RKO cells at 1 to 10 uM by qRT-PCR analysis; assay type: functional, cell-based; settings: dose 1-10 µM
MC-38 [10] = test: Antitumor activity against mouse MC38 cells implanted in C57BL/6 mouse assessed as reduction in tumor weight at 50 mg/kg, ip administered once daily for 16 days and measured for every 2 days; assay type: functional, organism-based; settings: time 16.0 day
MC-38 [11] = test: Antitumor activity against mouse MC38 cells implanted in C57BL/6 mouse assessed as reduction in tumor growth at 25 mg/kg, ip administered once daily for 16 days; assay type: functional, organism-based; settings: time 16.0 day
RKO [12] = test: Antitumor activity in human RKO cells cocultured with […] assessed as induction of T-cell mediated cell killing at 10 uM incubated for 24 hrs by crystal violet staining method; assay type: functional, cell-based
MC-38 [13] = test: Antitumor activity against mouse MC38 cells implanted in C57BL/6 mouse assessed as inhibition of tumor size at 50 mg/kg, ip administered once daily for 16 days; assay type: functional; settings: MC-38, 384 h, time 16 day
[14] = target: Programmed cell death 1 ligand 1 (Homo sapiens) (UniProt Q9NZQ7); test: Induction of PD-L1 degradation in human RKO cells at 5 uM in presence of 3-MA incubated for 24 hrs by Western blot analysis; assay type: cell-based
[15] = target: Programmed cell death 1 ligand 1 (Homo sapiens) (UniProt Q9NZQ7); test: Induction of PD-L1 degradation in human RKO cells at 5 uM in presence of CQ incubated for 24 hrs by Western blot analysis; assay type: cell-based
[16] = target: Programmed cell death 1 ligand 1 (Homo sapiens) (UniProt Q9NZQ7); test: Induction of PD-L1 degradation in human RKO cells at 5 uM in presence of MG132 incubated for 24 hrs by Western blot analysis; assay type: cell-based
MC-38 [17] = test: Antitumor activity against mouse MC38 cells implanted in C57BL/6 mouse assessed as downregulation of PD-L1 expression at 50 mg/kg, ip administered once daily and measured after 16 days by immunohistochemistry analysis; assay type: functional, organism-based; settings: time 16.0 day
RKO [18] = test: Downregulation of PD-L1 expression level in human RKO cells at 1 to 10 uM by Western blot analysis; assay type: functional, cell-based; settings: dose 1-10 µM, time 3-24 hrs, TDE = time-dependent effect
MC-38 [19] = test: Antitumor activity against mouse MC38 cells implanted in C57BL/6J mouse assessed as increase in number of CD8 positive T cells at 50 mg/kg, ip administered once daily for 16 days by flow cytometry analysis; assay type: functional, organism-based; settings: time 16.0 day
MC-38 [20] = test: Antitumor activity against mouse MC38 cells implanted in C57BL/6 mouse assessed as upregulation of CD3 expression at 50 mg/kg, ip administered once daily and measured after 16 days by immunohistochemistry analysis; assay type: functional, organism-based; settings: time 16.0 day
RKO [21] = test: Downregulation of PD-L1 expression level in human RKO cells incubated for 24 hrs by Western blot analysis; assay type: functional, cell-based; settings: dose 1-10 µM

Programmed cell death 1 ligand 1 (Homo sapiens), sequence (Q9NZQ7 whole entry): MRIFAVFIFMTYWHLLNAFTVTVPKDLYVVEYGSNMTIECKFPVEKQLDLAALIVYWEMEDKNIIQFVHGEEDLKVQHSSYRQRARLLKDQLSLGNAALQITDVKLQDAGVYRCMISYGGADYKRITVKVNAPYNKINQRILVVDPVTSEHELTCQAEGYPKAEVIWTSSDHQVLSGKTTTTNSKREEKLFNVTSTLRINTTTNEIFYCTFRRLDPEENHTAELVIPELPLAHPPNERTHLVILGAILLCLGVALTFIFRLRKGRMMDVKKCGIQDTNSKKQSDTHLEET

SMILES	pIC50 (RKO [1])	Activity (RKO [2])	other results
COc1ccc(Cc2nc(NC(=O)c3cccc(N)c3)n(C)c2Cc2ccc(OC)c(OC)c2)cc1	4.70		
COc1ccc(Cc2nc(NC(=O)c3ccc(C(C)=O)cc3)n(C)c2Cc2ccc(OC)c(OC)c2)cc1	4.57		
CNC(=O)Nc1nc(Cc2ccc(OC)cc2)c(Cc2ccc(OC)c(OC)c2)n1C	4.62	Active	
COc1ccc(Cc2nc(NC(=O)c3cccc(NC(C)=O)c3)n(C)c2Cc2ccc(OC)c(OC)c2)cc1	< 4.40		
COc1ccc(Cc2nc(NC(=O)c3cc(Br)ccc3O)n(C)c2Cc2ccc(OC)c(OC)c2)cc1	4.69		
COc1ccc(Cc2nc(NC(=O)c3cccc(NC(=O)CN(C)C)c3)n(C)c2Cc2ccc(OC)c(OC)c2)cc1	5.28	Active	
CCCCC(=O)Nc1cccc(C(=O)Nc2nc(Cc3ccc(OC)cc3)c(Cc3ccc(OC)c(OC)c3)n2C)c1	5.28	Active	
COc1ccc(Cc2nc(NC(=O)c3cccc(N(C)C)c3)n(C)c2Cc2ccc(OC)c(OC)c2)cc1	< 4.40		
COc1ccc(Cc2nc(NC(=O)c3ccc(F)cc3)n(C)c2Cc2ccc(OC)c(OC)c2)cc1	< 4.40		
CNc1cccc(C(=O)Nc2nc(Cc3ccc(OC)cc3)c(Cc3ccc(OC)c(OC)c3)n2C)c1	< 4.40		
COc1ccc(Cc2nc(NC(=O)C3CCCCC3)n(C)c2Cc2ccc(OC)c(OC)c2)cc1	< 4.40		
COc1ccc(Cc2nc(NC(=O)c3ccco3)n(C)c2Cc2ccc(OC)c(OC)c2)cc1	4.53	Active	
COC(=O)C12CCC(C(=O)Nc3nc(Cc4ccc(OC)cc4)c(Cc4ccc(OC)c(OC)c4)n3C)(CC1)CC2	4.84		
COc1ccc(Cc2nc(NC(=O)c3sc(C)nc3C(F)(F)F)n(C)c2Cc2ccc(OC)c(OC)c2)cc1	4.51	Active	
COc1ccc(Cc2nc(NC(=O)C3CCOCC3)n(C)c2Cc2ccc(OC)c(OC)c2)cc1	4.48	Active	
COc1ccc(Cc2nc(NC(=O)c3cccc(NC(=O)OC(C)(C)C)c3)n(C)c2Cc2ccc(OC)c(OC)c2)cc1	4.50	Active	Activity (MC-38 [3]): Active; Activity [4]: Non-Toxic; Activity (RKO [5]): inactive; Activity (MC-38 [6]): Active; Activity (MC-38 [7]): Active; Activity (MC-38 [8]): Active; Activity (RKO [9]): inactive; Activity (MC-38 [10]): Active; Activity (MC-38 [11]): inactive; Activity (RKO [12]): Active; inhibition in vivo at 50 mg/kg (MC-38 [13]): 45%; Activity [14]: inactive; Activity [15]: Active; Activity [16]: Active; Activity (MC-38 [17]): Active; Activity (RKO [18]): Tde; Activity (MC-38 [19]): Active; Activity (MC-38 [20]): Active; Activity (RKO [21]): Dose-Dependent Effect
COc1ccc(Cc2nc(NC(=O)C34C[C@H]5C[C@H](C3)C[C@@H](C4)C5)n(C)c2Cc2ccc(OC)c(OC)c2)cc1	4.59	Active	
COc1ccc(Cc2nc(NC(=O)c3ccc(OC(F)(F)F)cc3)n(C)c2Cc2ccc(OC)c(OC)c2)cc1	4.62	Active	
COc1ccc(Cc2nc(NC(=O)c3ccc(N)cc3)n(C)c2Cc2ccc(OC)c(OC)c2)cc1	4.60		
COc1ccc(Cc2nc(NC(=O)C3CC4(C3)CC(F)(F)C4)n(C)c2Cc2ccc(OC)c(OC)c2)cc1	< 4.40		
CCCCC(=O)Nc1nc(Cc2ccc(OC)cc2)c(Cc2ccc(OC)c(OC)c2)n1C	< 4.40		
COc1ccc(Cc2nc(NC(=O)c3ccccc3)n(C)c2Cc2ccc(OC)c(OC)c2)cc1	< 4.40		
COc1ccc(Cc2nc(NC(=O)c3ccccc3O)n(C)c2Cc2ccc(OC)c(OC)c2)cc1	< 4.40	Active	
COc1ccc(Cc2nc(NC(=O)c3ccc(NC(=O)OC(C)(C)C)cc3)n(C)c2Cc2ccc(OC)c(OC)c2)cc1	4.65		
COc1ccc(Cc2nc(NC(=O)c3cc(OC)cc(OC)c3)n(C)c2Cc2ccc(OC)c(OC)c2)cc1	< 4.40		
